Assay results published in patent publication US7517857B2, “Immune-modulating peptide” (POSCO, priority 2002, dated 2009).
Where a SMILES comes first, the peptide text is derived from it. [ ]: non-standard residue; d: D form.

Experiments:
FPRL1 = target: T1, FPRL1 (Homo sapiens, UniProt P25090); test: [Ca2+]i increase in FPRL1-expressing RBL-2H3 cells (fura-2); assay type: cell-based
T1 construct: expressed in transfected cells; host or cells: RBL-2H3 (rat basophilic leukemia) cells, G418-selected
T1 sequence (P25090 1-351): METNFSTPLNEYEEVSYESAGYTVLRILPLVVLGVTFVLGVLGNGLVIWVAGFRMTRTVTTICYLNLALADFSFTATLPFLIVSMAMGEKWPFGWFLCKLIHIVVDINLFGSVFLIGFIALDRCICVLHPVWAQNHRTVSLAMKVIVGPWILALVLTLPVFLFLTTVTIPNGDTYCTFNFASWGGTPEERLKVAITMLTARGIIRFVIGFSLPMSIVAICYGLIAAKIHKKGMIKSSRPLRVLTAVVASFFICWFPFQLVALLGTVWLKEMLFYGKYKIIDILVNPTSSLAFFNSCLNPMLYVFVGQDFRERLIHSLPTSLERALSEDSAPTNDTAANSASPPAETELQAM
Method: […] The level of [Ca^2+]i was determined fluorometrically by Grynkiewicz's method using fura-2/AM (15). Briefly, prepared cells were incubated with 3 μM fura-2/AM at 37° C. for 50 min in a fresh serum-free RPMI 1640 medium under continuous stirring. 2×10^6 cells were aliquoted for each assay in Ca^2+-free Locke's solution (154 mM NaCl, 5.6 mM KCl, 1.2 mM MgCl2, 5 mM HEPES, pH 7.3, 10 mM glucose, and 0.2 mM EGTA). Fluorescence changes at the dual excitation wavelengths of 340 nm and 380 nm and the emission wavelength of 500 nm were measured, and the calibrated fluorescence ratio was translated into [Ca^2+]i. The peak level of the increased [Ca^2+]i was monitored.
[…] The level of [Ca^2+]i was determined by the same procedures as above. The peak level of the increased [Ca^2+]i was monitored.

CT26, colon carcinoma = test: Tumor growth in CT26-injected Balb/c mice; assay type: in vivo
Method: (§1) CT26, EL4 were maintained at 37° C. in a humidified 5% CO2 atmosphere in RPMA1640 medium supplemented with 20% (vol/vol) heat-inactivated fetal bovine serum. For animal experiments, the cells were passaged two to five times after re-growth from frozen stocks. Log phase CT26 cells were detached from tissue culture flasks with 0.25% trypsin and 0.03% EDTA. CT26 and EL4 were washed and resuspended in PBS immediately before injection.
In order to assess the antitumor effect of immuno-modulating peptide, Trp-Arg-Tyr-Met-Val-D-Met-CONH2, (WRYMVm; (SEQ ID NO: 4)), CT26, colon carcinoma was tested in Balb/c mice model. Tumor mass was measured in size every two days after 6 days from tumor cell inoculation.
To find the effective tumor-suppressing dose of WRYMVm, 0.1 μg/mouse, 0.25 μg/mouse, and 1 μg/mouse of WRYMVm were administered to CT26/Balb/c model. […] A similar phenomenon is easily found in chemotactic migration of leukocytes. In view of the fact that FPRL1, which is a target receptor for WRYMVm, is related to the chemotactic migration event, it is concluded that WRYMVm-induced antitumor effect might be derived from leukocyte infiltration event. Therefore, it is quite necessary to reveal the direct relationship between the WRYMVm-induced antitumor effect and the leukocyte infiltration event.

EL4, lymphoma cells = test: Tumor growth in EL4-injected C57/BL6 mice; assay type: in vivo; settings: EL4 2×10^5 cells/mouse s.c.
Method: as §1
To confirm the antitumor effect of WRYMVm, another tumor model, EL4, lymphoma cells was tested. In order to form the tumor mass of EL4, EL4 (2×10^5 cells/mouse) were injected s.c to C57/BL6 mice. […] Overall, it appears obvious that WRYMVm has a tumor growth-suppressing effect in mice model.

human neutrophils = test: Superoxide generation in human neutrophils (cytochrome c reduction); assay type: cell-based; settings: for O^2− (nmol/10^6 cells), superoxide generation: cytochrome c reduction
Method: Peripheral blood leukocyte concentrates were donated by the Ulsan Red Cross Blood Center (Ulsan, Korea). Human neutrophils were isolated according to the standard procedures of dextran sedimentation, hypotonic lysis of erythrocytes, and a lymphocyte separation medium gradient as described above (9). The isolated human neutrophils were then used promptly.
The activity of the peptides, WKYMVm, peptides of SEQ ID NOs: 1 to 24, and wkymvm on superoxide generation in human neutrophils was measured. Superoxide anion generation was quantified by measuring reduction of cytochrome c using a microtiter 96-well plate ELISA reader (Bio-Tekinstruments, EL312e, Winooski, Vt.) as described (14). The human neutrophils (1×10^6 cells/100 μl of RPMI 1640 medium per well of a 96-well plate) were preincubated with 50 μM cytochrome c at 37° C. for 1 min and then incubated with the indicated concentrations of peptides. The superoxide generation was measured as a change in light absorption at 550 nm over 5 minutes at 1 min intervals. From at least four independent experiments, peptides with active amino acids at each position were chosen.

tumor = settings: vincristine i.p. 2 μg/mouse 8 hours prior to peptide injection
Method: Specific pathogen free male Balb/c mice and C57/BL6 mice were purchased from Hyo Chang Bioscience (Taegu, Korea). All mice were maintained under specific pathogen-free conditions in the animal facility of the Immunomodulation Research Center, University of Ulsan, Korea and used at 6-8 week of age. CT26 and EL4 were injected s.c. to Balb/c mice and C57/BL6 mice respectively, on day 0. WRYMVm (SEQ ID NO: 4) and CpG ODN were administered systemically (i.p.; 200 μl) from day six for every 4 days while a control group received PBS or 100 μg/mice for CpG ODN. Vincristine was administered via i.p. injection on the same days just before 8 hours from peptide or CpG ODN injection. On every 2 days after inoculation, tumor mass was measured using digital Varier calipers. Tumor volumes were calculated as [length×width×height×π/6]. The date of death is recorded as the date when mice spontaneously succumbed to tumor or were sacrificed because of a moribund state, or when the tumor width measured 20 mm (a width at which the tumor is not going to regress).
The results are expressed as the mean SE from the 10 mice/group. In the FIGS. 9 to 12, * indicates p<0.01 and ** indicates p<0.05 in comparison with values obtained from vehicle (PBS) treated control.
Therefore, i.p. 2 μg/mouse of vincristine was injected 8 hours prior to the peptide injection.

## CSCC[C@H](NC(=O)[C@H](Cc1ccc(O)cc1)NC(=O)[C@H](CCCNC(=N)N)NC(=O)[C@@H](N)Cc1c[nH]c2ccccc12)C(=O)N[C@H](C(=O)N[C@H](CCSC)C(N)=O)C(C)C [WRYMVm-NH2, Trp-Arg-Tyr-Met-Val-D-Met-NH2] (H-WRYMV[dM]-NH2; N-terminus assumed)
FPRL1
  [Ca^2+]i increasing activity: higher affinity to FPRL1
FPRL1; fura-2 loaded, read-out: EC50 (nM), intracellular calcium increase
  EC50: 0.12 ± 0.01 nM
CT26, colon carcinoma; 0.1 μg/mouse, compared with 0.25 and 1 μg/mouse
  tumor suppression: highest effectiveness in the tumor suppression
CT26, colon carcinoma; 1 μg/mouse
  tumor suppression: the tumor suppressing effect was lowered
CT26, colon carcinoma; FIGS. 9A and 9B
  tumor growth in CT26-injected mice (figure legend): attenuates tumor growth
EL4, lymphoma cells
  tumor mass suppression: able to suppress tumor mass of EL4
Human neutrophils; 100 nM of peptides
  superoxide generating activity: stimulated superoxide generation
Human neutrophils; peptide 100 nM
  O^2− (nmol/10^6 cells), superoxide generation: 47.1 ± 11.23 nmol/10^6 cells
Human neutrophils; peptide 10 μM
  O^2− (nmol/10^6 cells), superoxide generation: 38.2 ± 6.54 nmol/10^6 cells
tumor
  tumor growth suppression / antitumor activity: ability to suppress tumor growth
